# Measured values reported in patent US9833518B2, “Heteromultivalent particle compositions” (CASE WESTERN RESERVE UNIVERSITY, priority 2012, dated 2017).
# Tests used:
# GPIIb-IIIa (αIIbβ3) = GPIIb-IIIa (αIIbβ3) (Homo sapiens, UniProt P05106+P08514); conditions: reported in literature; cited from earlier work
# [1] = test system: fibrinogen-mediated platelet aggregation; assay: Aggregometry assay of free peptides in platelet-rich plasma; assay type: cell-based, human
# Procedure: Affinity of free lRGD and cRGD peptides to bind activated platelets was characterized by ‘half maximal Inhibitory Concentration’ (IC50) value, which, in our assays, was the concentration of peptide required to inhibit fibrinogen-mediated platelet aggregation in platelet-rich plasma (PRP) by 50%, in an aggregometry (Bio/Data, PAP-4) set-up. PRP was prepared from citrated human whole blood by centrifugation at 800 RPM for 15 min at 25° C. 50 μl aliquots of PRP were warmed to 37° C. for 2 minutes, incubated with various concentrations of lRGD and cRGD peptide in the presence of agonist adenosine di-phosphate (ADP, 10 μM) and the maximal aggregation percentage was determined while stifling for 15 min. Consequently, from the maximal aggregation percentage and comparison to aggregation without peptides, inhibition percentage was determined.
# Chain of GPIIb-IIIa (αIIbβ3) (P08514 32-887 limits assumed): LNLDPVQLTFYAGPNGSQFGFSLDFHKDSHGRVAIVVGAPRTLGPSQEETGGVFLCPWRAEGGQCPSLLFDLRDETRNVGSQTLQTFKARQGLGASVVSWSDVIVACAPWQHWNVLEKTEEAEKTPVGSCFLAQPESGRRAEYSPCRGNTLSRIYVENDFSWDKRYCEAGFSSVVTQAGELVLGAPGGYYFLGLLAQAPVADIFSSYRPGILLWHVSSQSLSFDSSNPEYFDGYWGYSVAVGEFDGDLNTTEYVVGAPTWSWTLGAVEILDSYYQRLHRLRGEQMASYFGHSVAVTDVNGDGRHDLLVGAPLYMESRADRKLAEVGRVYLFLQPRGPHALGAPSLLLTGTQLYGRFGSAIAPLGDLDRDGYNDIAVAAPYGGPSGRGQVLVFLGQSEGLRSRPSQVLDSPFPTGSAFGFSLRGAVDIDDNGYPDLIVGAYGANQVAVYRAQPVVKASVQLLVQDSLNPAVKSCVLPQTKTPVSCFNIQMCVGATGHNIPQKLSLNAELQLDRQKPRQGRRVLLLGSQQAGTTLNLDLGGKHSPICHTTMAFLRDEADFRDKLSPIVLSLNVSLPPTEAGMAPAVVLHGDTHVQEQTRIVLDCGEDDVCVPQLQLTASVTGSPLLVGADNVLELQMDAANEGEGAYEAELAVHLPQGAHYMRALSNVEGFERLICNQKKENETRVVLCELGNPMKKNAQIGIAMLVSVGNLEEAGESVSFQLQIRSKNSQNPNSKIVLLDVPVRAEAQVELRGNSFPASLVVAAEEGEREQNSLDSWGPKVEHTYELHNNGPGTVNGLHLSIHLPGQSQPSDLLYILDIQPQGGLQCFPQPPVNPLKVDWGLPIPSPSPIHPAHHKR
# Chain of GPIIb-IIIa (αIIbβ3) (P08514 891-1039 partner limits assumed): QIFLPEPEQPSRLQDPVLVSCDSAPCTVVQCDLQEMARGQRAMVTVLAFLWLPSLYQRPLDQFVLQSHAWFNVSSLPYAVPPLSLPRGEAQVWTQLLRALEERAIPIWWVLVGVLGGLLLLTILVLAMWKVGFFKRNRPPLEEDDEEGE
# Chain of GPIIb-IIIa (αIIbβ3) (P05106 27-788): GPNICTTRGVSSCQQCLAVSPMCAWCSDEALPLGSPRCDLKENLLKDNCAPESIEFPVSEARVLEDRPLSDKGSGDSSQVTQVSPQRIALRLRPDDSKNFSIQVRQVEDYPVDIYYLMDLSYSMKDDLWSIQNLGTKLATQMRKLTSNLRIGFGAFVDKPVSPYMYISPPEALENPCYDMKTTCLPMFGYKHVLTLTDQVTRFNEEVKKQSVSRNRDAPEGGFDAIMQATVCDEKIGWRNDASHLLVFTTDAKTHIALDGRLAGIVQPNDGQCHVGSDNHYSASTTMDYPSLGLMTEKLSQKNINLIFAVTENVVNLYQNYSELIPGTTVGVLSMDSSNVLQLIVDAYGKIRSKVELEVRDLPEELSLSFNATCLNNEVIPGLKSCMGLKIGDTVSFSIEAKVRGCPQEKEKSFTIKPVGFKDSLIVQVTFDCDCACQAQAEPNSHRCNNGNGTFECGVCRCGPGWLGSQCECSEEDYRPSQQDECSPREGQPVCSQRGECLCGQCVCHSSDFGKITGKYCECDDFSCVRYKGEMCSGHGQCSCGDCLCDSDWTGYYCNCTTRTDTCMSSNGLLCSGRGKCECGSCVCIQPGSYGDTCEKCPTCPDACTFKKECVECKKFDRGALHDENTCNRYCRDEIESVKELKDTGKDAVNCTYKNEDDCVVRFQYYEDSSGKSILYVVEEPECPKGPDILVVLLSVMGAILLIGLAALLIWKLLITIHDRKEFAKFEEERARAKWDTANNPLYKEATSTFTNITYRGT
substance,measurement,setting,value
cyclo-CNPRGDY(-OEt)RC [cRGD],"affinity and selectivity for GPIIb-IIIa compared with αvβ3, αvβ5 and α5β1",GPIIb-IIIa (αIIbβ3),high affinity and selectivity for GPIIb-IIIa
same,"IC50 by aggregometry, lower compared to lRGD",[1]; FIG. 18 legend,~2 orders of magnitude
same,IC50 (inhibition of platelet aggregation) relative to lRGD,"[1]; PRP, ADP 10 μM, 37° C.",about 1000 times lower
